Measured values taken from patent US11337996B2 (priority 2012, dated 2022).
“And” between values parts separate entries of the source, which are not always exact repeats. Identical values can stand only once. “Also recorded” adds a separate entry of the source. Like-named read-outs stand apart in the source and are kept apart here. Marks after values point to notes of the source that are not given here.

Experiments:
[1] = test system: Clostridium perfringens (CP); type: in vivo, chickens
[2] = test system: Clostridium perfringens pathogen (CPP); type: in vivo, Cobb 500 chicks; settings: CPP Challenge
[3] = test system: α-toxin antigen; settings: in vivo
[4] = design: species or system Cobb 500 chicks; settings: in vivo
[5] = test system: NetB toxin antigen; settings: in vivo
[6] = test system: IL8, LITAF, IL-6, iNOS, TNFSF15 expression; design: species or system broiler chickens (Ross/Ross); settings: in vivo
[7] = test system: Clostridium perfringens; type: in vivo, broiler chicken (Cobb X Cobb); settings: infect
[8] = test system: Clostridium perfringens (CPP) and aflatoxin; design: species or system Cobb 500 chicks; settings: in vivo
[9] = test system: IL8, LITAF, TNFSF15, IL-6, iNOS, IL-1β expression; design: species or system broiler chickens (Ross/Ross); settings: in vivo
[10] = test system: Clostridium perfringens pathogen (CPP) without and with Aflatoxin; design: species or system Cobb 500 chicks; settings: in vivo
[11] = test system: Clostridium perfringens pathogen (CPP) + 1 ppm aflatoxin B1; design: species or system Cobb 500 chicks; settings: in vivo
[12] = test system: E. maxima; design: species or system chickens; settings: in vivo

Substance: virginiamycin [VM]
- Feed Conversion Day 0-21 ([1]; CP): 1.746 ^bcdef
- Feed Conversion Day 0-28 ([1]; CP): 1.706 ^bcd
- Feed Conversion Day 14-21 ([1]; CP): 1.566 ^d
- Feed Conversion Day 14-28 ([1]; CP): 1.563 ^bcd
- Weight Gain Day 0-21 ([1]; CP): 0.511 ^bcd
- Weight Gain Day 0-28 ([1]; CP): 0.742 ^b
- Weight Gain Day 14-21 ([1]; CP): 0.295 ^bcd
- Weight Gain Day 14-28 ([1]; CP): 0.526 ^bcd
- Lesion Score ([1]; CP, 0 to 3 score): 0.2^cd
- Necrotic Enteritis Mortality, % ([1]; CP, listed as Virginiamycin): 6.3^bc %
- Necrotic Enteritis Mortality, % ([1]; CP, listed as virginiamycin): significantly better than no product
- Rank (lesion score, necrotic enteritis mortality, d 14-28 weight gain and feed conversion ratio) ([1]; Table A, birds with a Clostridium perfringens challenge): 1
- reduction of disease, in words ([1]; in vivo): numerically the best
- Feed Conversion Ratio Day 0-10 [2]: 1.22^b
- Feed Conversion Ratio Day 0-24 [2]: 1.33^f
- Feed Conversion Ratio Day 10-24 [2]: 1.36^e
- Feed intake, g Day 0-10 [2]: 20.9^cde g
- Feed intake, g Day 0-24 [2]: 50.5^a g
- Feed intake, g Day 10-24 [2]: 73.6^a g
- Gain, g Day 0-10 [2]: 174^ab g
- Gain, g Day 0-24 [2]: 980^a g
- Gain, g Day 10-24 [2]: 806^a g
- Lesions Day 20 [2]: 1.025^a
- Mortality, % Day 0-10 [2]: 0.63^ef %
- Mortality, % Day 10-24 [2]: 0.63^bc %
- Gain, g Day 10-24 ([2]; listed as virginiamycin): improved gain compared to the diet with no product
- antibodies to α-toxin (optical density) [3]: notable increases
- serum antibody levels against α-toxin [3]: significantly higher
- Feed Conversion Ratio Day 0-10 [4]: 1.28^b
- Feed Conversion Ratio Day 0-24 [4]: 1.34^ef
- Feed intake, g Day 0-10 [4]: 22.6^ab g
- Feed intake, g Day 10-24 [4]: 72.2^abc g and 72.2^abe g
- Gain, g Day 0-10 [4]: 180^a g
- Gain, g Day 0-24 [4]: 983^a g
- Gain, g Day 10-24 [4]: 804^a g
- Mortality, % Day 0-10 [4]: 0^f %
- Mortality, % Day 10-24 [4]: 0.63^bc %
- performance [4]: improved performance
- serum antibody levels against the NetB toxin antigen [5]: higher
- serum antibody response against NetB toxin antigen [5]: increased
- IL8 expression [6]: decreased
- IL-6 expression [6]: generally decreased
- LITAF expression [6]: decreased
- iNOS expression [6]: generally decreased
- % NE Mortality [7]: 1.6 bc %
- Feed Consumption D0-21 [7]: 4.733 b
- Feed Consumption D0-28 [7]: 6.313 b
- Feed Consumption D14-21 [7]: 2.312 c
- Feed Consumption D14-28 [7]: 2.891 bc
- Feed Conversion D0-21 [7]: 1.947 bc
- Feed Conversion D0-28 [7]: 1.929 bc
- Feed Conversion D14-21 [7]: 1.752 c
- Feed Conversion D14-28 [7]: 1.797 c
- Weight Gain D0-21 [7]: 0.316 b
- Weight Gain D14-21 [7]: 0.171 a
- Weight Gain D14-28 [7]: 0.367 b
- NE (0-3) Lesion Score ([7]; DOT 21): 0.5 ab
- feed conversion [8]: improved; also recorded: greatest improvement at 1.5 ppm
- feed intake [8]: improved
- gain [8]: improved; also recorded: higher gain that those birds not fed VM; also recorded: helps improve gain; also recorded: not at 1.5 ppm AFL
- lesion scores [8]: increased
- mortality [8]: decreased
- TNFSF15 expression [9]: decreased
- iNOS expression [9]: decreased
- Daily Feed Intake, g 0-10 d [10]: 21.2^a g
- Daily Feed Intake, g 0-24 d [10]: 47.6^ab g
- Daily Feed Intake, g 10-24 d [10]: 68.2^b g
- FCR (F:G) 0-10 d [10]: 1.24^c
- FCR (F:G) 0-24 d [10]: 1.35^b
- FCR (F:G) 10-24 d [10]: 1.39^b
- Gain, g 0-10 d [10]: 173^a g
- Gain, g 0-24 d [10]: 917^a g
- Gain, g 10-24 d [10]: 744^a g
- Lesion Score at d-20 [10]: 0.767
- Mortality, % 0-10 d [10]: 0.42^c %
- Mortality, % 10-24 d [10]: 0.63%
- Feed Conversion Ratio Day 0-24 [11]: 1.38^abcd
- Feed Conversion Ratio Day 10-24 [11]: 1.43^ab
- Feed intake, g Day 0-10 [11]: 20.0^efg
- Feed intake, g Day 0-24 [11]: 41.7^f g
- Feed intake, g Day 10-24 [11]: 58.7^g
- Gain, g Day 0-10 [11]: 166^cd g
- Gain, g Day 0-24 [11]: 788^f g
- Gain, g Day 10-24 [11]: 622^f g
- Lesions Day 20 [11]: 1.150^a
- Mortality, % Day 0-10 [11]: 0.63^ef %
- Mortality, % Day 10-24 [11]: 0.63^bc %
- gain [11]: higher gains than adding NP
- Feed Conversion Day 0-21 [12]: 1.676 ^ef
- Feed Conversion Day 0-28 [12]: 1.604 ^e
- Feed Conversion Day 14-21 [12]: 1.550 ^d
- Feed Conversion Day 14-28 [12]: 1.480 ^d
- Lesion Score [12]: 0.0^d
- Necrotic Enteritis Mortality, % [12]: 0.0^c %
- Weight Gain Day 0-21 [12]: 0.569 ^ab
- Weight Gain Day 0-28 [12]: 0.845 ^a
- Weight Gain Day 14-21 [12]: 0.325 ^a
- Weight Gain Day 14-28 [12]: 0.601 ^a
